From patent publication US10072011B2, “Substituted bridged urea analogs as sirtuin modulators” (GlaxoSmithKline Intellectual Property (No.2) Limited, priority 2014, dated 2018)
Where two headings read alike, the source gives them in different places.

Biological target: T1, SIRT1 (Homo sapiens, UniProt Q96EB6)
T1 sequence (Q96EB6 1-747): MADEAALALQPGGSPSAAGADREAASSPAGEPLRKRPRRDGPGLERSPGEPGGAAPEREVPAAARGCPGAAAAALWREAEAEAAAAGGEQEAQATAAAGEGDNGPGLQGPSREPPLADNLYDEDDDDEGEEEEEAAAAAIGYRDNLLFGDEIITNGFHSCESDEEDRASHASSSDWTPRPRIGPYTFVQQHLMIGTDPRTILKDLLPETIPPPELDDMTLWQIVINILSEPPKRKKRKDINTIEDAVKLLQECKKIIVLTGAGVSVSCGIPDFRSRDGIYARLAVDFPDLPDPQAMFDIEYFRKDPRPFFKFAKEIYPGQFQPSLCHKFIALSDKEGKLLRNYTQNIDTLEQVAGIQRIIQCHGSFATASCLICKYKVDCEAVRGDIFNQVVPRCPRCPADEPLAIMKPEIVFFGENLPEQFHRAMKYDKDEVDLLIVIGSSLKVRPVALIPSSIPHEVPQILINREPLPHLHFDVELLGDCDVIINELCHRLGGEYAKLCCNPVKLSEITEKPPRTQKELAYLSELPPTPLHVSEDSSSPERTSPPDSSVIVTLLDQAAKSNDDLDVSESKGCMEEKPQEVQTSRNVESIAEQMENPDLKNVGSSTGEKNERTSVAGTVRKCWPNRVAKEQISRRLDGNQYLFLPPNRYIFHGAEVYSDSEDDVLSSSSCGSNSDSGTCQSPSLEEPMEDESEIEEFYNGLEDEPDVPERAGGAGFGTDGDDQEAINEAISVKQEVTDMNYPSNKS
Assay: Trp mass spectrometry assay of SIRT1 activation (Ac-R-H-K-K(Ac)-W-NH2 peptide)
Format: biochemical
Conditions: for Emax: 25 min, read-out: TRP MAX RESP (percent maximum fold activation)
Outline: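 Mass spectrometry read-out (OAADPR formed, or deacetylated Trp peptide) after a 25 min NAD-dependent deacetylation by E. coli-expressed His-SIRT1, stopped with formic acid.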

[1] = Trp peptide 0.5 μM, 120 μM βNAD+, 10 nM SIRT1, 25 min at 25° C.
[2] = Trp peptide 0.5 μM, 120 μM βNAD+, 10 nM SIRT1, 25 min at 25° C., relative to control (100%)

Structure (SMILES)	TRP Activity (EC1.5, concentration of test compound that results in 150% activation of SIRT1) [1]	Emax [2] [%]	Emax [%]
Cn1nccc(NC(=O)N2c3nc(C(=O)NCC(F)(F)F)ccc3N3CC[C@H]2C3)c1=O [Example 121, (4S)—N5-(2-methyl-3-oxo-2,3-dihydropyridazin-4-yl)-N7-(2,2,2-trifluoroethyl)-3,4-dihydro-1,4-methanopyrido[2,3-b][1,4]diazepine-5,7(2H)-dicarboxamide]	A (EC1.5<1 μM)		> 150
O=C(N[C@H](c1ccccc1)C(F)(F)F)c1ccc2c(n1)N(C(=O)Nc1cc(OC[C@H](O)CO)ccn1)[C@H]1CCN2C1 [Example 184, (4S)—N5-(4-((R)-2,3-dihydroxypropoxy)pyridin-2-yl)-N7-((R)-2,2,2-trifluoro-1-phenylethyl)-3,4-dihydro-1,4-methanopyrido[2,3-b][1,4]diazepine-5,7(2H)-dicarboxamide]	A (EC1.5<1 μM)	> 150	
Cc1ncc(-c2ccnc(NC(=O)N3c4nc(C(=O)N[C@H](C)C(F)(F)F)ccc4N4CC[C@H]3C4)c2)o1 [Example 128, (4S)—N5-(4-(2-methyloxazol-5-yl)pyridin-2-yl)-N7-((R)-1,1,1-trifluoropropan-2-yl)-3,4-dihydro-1,4-methanopyrido[2,3-b][1,4]diazepine-5,7(2H)-dicarboxamide]	A (EC1.5<1 μM)	> 150	
C[C@@H](NC(=O)c1ccc2c(n1)N(C(=O)Nc1nccs1)[C@H]1CCN2C1)C(F)(F)F [Example 191, (4S)—N5-(thiazol-2-yl)-N7-((R)-1,1,1-trifluoropropan-2-yl)-3,4-dihydro-1,4-methanopyrido[2,3-b][1,4]diazepine-5,7(2H)-dicarboxamide]	A (EC1.5<1 μM)	> 150	
C=CCNC(=O)c1ccc2c(n1)N(C(=O)Nc1cc(OC[C@H](O)CO)ccn1)[C@H]1CCN2C1 [Example 178, (4S)—N7-allyl-N5-(4-((R)-2,3-dihydroxypropoxy)pyridin-2-yl)-3,4-dihydro-1,4-methanopyrido[2,3-b][1,4]diazepine-5,7(2H)-dicarboxamide]	B (EC1.5 1-25 μM)	> 150	
O=C(NC1CCC1)c1ccc2c(n1)N(C(=O)Nc1cnccn1)[C@H]1CCN2C1 [Example 206, (4S)—N7-cyclobutyl-N5-(pyrazin-2-yl)-3,4-dihydro-1,4-methanopyrido[2,3-b][1,4]diazepine-5,7(2H)-dicarboxamide]	B (EC1.5 1-25 μM)	> 150	
O=C(NC[C@@H](O)C(F)(F)F)c1ccc2c(n1)N(C(=O)Nc1ccccn1)[C@H]1CCN2C1 [Example 34, (4S)—N5-(pyridin-2-yl)-N7-((R)-3,3,3-trifluoro-2-hydroxypropyl)-3,4-dihydro-1,4-methanopyrido[2,3-b][1,4]diazepine-5,7(2H)-dicarboxamide]	A (EC1.5<1 μM)	> 150	
CN(C)C(=O)c1ccnc(NC(=O)N2c3nc(C(=O)NCC(F)(F)F)ccc3N3CC[C@H]2C3)c1 [Example 259, (4S)—N5-(4-(dimethylcarbamoyl)pyridin-2-yl)-N7-(2,2,2-trifluoroethyl)-3,4-dihydro-1,4-methanopyrido[2,3-b][1,4]diazepine-5,7(2H)-dicarboxamide]	B (EC1.5 1-25 μM)		> 150
Cc1ncc(-c2ccnc(NC(=O)N3c4nc(C(=O)NCC5CC5)ccc4N4CC[C@H]3C4)c2)o1 [Example 114, (4S)—N7-(cyclopropylmethyl)-N5-(4-(2-methyloxazol-5-yl)pyridin-2-yl)-3,4-dihydro-1,4-methanopyrido[2,3-b][1,4]diazepine-5,7(2H)-dicarboxamide]	B (EC1.5 1-25 μM)	> 150	
O=C(N[C@H]1C[C@H](O)C1)c1ccc2c(n1)N(C(=O)Nc1ccccn1)[C@H]1CCN2C1 (racemic) [Example 210, (4S)—N7-((1r,3S)-3-hydroxycyclobutyl)-N5-(pyridin-2-yl)-3,4-dihydro-1,4-methanopyrido[2,3-b][1,4]diazepine-5,7(2H)-dicarboxamide]	B (EC1.5 1-25 μM)	> 150	
Cc1ccc(NC(=O)N2c3nc(C(=O)NC4CC4)ccc3N3CC[C@H]2C3)nc1 [Example 215, (4S)—N7-cyclopropyl-N5-(5-methylpyridin-2-yl)-3,4-dihydro-1,4-methanopyrido[2,3-b][1,4]diazepine-5,7(2H)-dicarboxamide]	B (EC1.5 1-25 μM)	> 150	
C[C@@H](NC(=O)c1ccc2c(n1)N(C(=O)Nc1cc(C(N)=O)ccn1)[C@H]1CCN2C1)C(F)(F)F [Example 137, (4S)—N5-(4-carbamoylpyridin-2-yl)-N7-((R)-1,1,1-trifluoropropan-2-yl)-3,4-dihydro-1,4-methanopyrido[2,3-b][1,4]diazepine-5,7(2H)-dicarboxamide]	A (EC1.5<1 μM)	> 150	
C#Cc1ccnc(NC(=O)N2c3nc(C(=O)NCC(F)(F)F)ccc3N3CC[C@H]2C3)c1 [Example 164, (4S)—N5-(4-ethynylpyridin-2-yl)-N7-(2,2,2-trifluoroethyl)-3,4-dihydro-1,4-methanopyrido[2,3-b][1,4]diazepine-5,7(2H)-dicarboxamide]	A (EC1.5<1 μM)	> 150	

Second part, led by results:

TRP Activity (EC1.5, concentration of test compound that results in 150% activation of SIRT1) [1]	Emax [2] [%]	Structure (SMILES)	Emax [%]
A (EC1.5<1 μM)		O=C(NC1CC1(F)F)c1ccc2c(n1)N(C(=O)Nc1ccc(F)cn1)[C@H]1CCN2C1 (single isomer, unassigned) [Example 243]	
C (EC1.5>25 μM)	< 150	O=C(NCC(F)(F)F)c1ccc2c(n1)N(C(=O)Nc1ccc3[nH]c(=O)[nH]c3c1)[C@H]1CCN2C1 [Example 232, (4S)—N5-(2-oxo-2,3-dihydro-1H-benzo[d]imidazol-5-yl)-N7-(2,2,2-trifluoroethyl)-3,4-dihydro-1,4-methanopyrido[2,3-b][1,4]diazepine-5,7(2H)-dicarboxamide]	
B (EC1.5 1-25 μM)	> 150	O=C(NCC(F)(F)F)c1ccc2c(n1)N(C(=O)Nc1ccccn1)[C@H]1CC[N+]2([O-])C1 [Example 295, (4S)-5-(pyridin-2-ylcarbamoyl)-7-((2,2,2-trifluoroethyl)carbamoyl)-2,3,4,5-tetrahydro-1H-1,4-methanopyrido[2,3-b][1,4]diazepine 1-oxide]	
A (EC1.5<1 μM)	< 150	C[C@@H](NC(=O)c1ccc2c(n1)N(C(=O)Nc1cc(-c3ncn[nH]3)ccn1)[C@H]1CCN2C1)C(F)(F)F [Example 322, (4S)—N5-(4-(1H-1,2,4-triazol-5-yl)pyridin-2-yl)-N7-((R)-1,1,1-trifluoropropan-2-yl)-3,4-dihydro-1,4-methanopyrido[2,3-b][1,4]diazepine-5,7(2H)-dicarboxamide]	
A (EC1.5<1 μM)	< 150	C[C@@H](NC(=O)c1ccc2c(n1)N(C(=O)Nc1cc(-c3cnn[nH]3)ccn1)[C@H]1CCN2C1)C(F)(F)F [Example 296, (4S)—N5-(4-(1H-1,2,3-triazol-5-yl)pyridin-2-yl)-N7-((R)-1,1,1-trifluoropropan-2-yl)-3,4-dihydro-1,4-methanopyrido[2,3-b][1,4]diazepine-5,7(2H)-dicarboxamide]	
A (EC1.5<1 μM)	> 150	Cc1cc(NC(=O)N2c3nc(C(=O)N[C@H](C)C(F)(F)F)ccc3N3CC[C@H]2C3)ncc1F [Example 238, (4S)—N5-(5-fluoro-4-methylpyridin-2-yl)-N7-((R)-1,1,1-trifluoropropan-2-yl)-3,4-dihydro-1,4-methanopyrido[2,3-b][1,4]diazepine-5,7(2H)-dicarboxamide]	
B (EC1.5 1-25 μM)	> 150	O=C(N[C@@H](CO)C(F)(F)F)c1ccc2c(n1)N(C(=O)Nc1cccnc1)[C@H]1CCN2C1 [Example 224, (4S)—N5-(pyridin-3-yl)-N7-((S)-1,1,1-trifluoro-3-hydroxypropan-2-yl)-3,4-dihydro-1,4-methanopyrido[2,3-b][1,4]diazepine-5,7(2H)-dicarboxamide]	
